The results in this text go back to publication PMC6797808, “Fucosylated inhibitors of recently identified bangle lectin from Photorhabdus asymbiotica” (Scientific Reports, 2019).

The IC50 is the concentration needed to halve the response being measured. Lower therefore signals higher potency.

Values after ≈ are worked out from the molar mass of the structure shown.

For assay [1], the target named is T1, PHL (Photorhabdus asymbiotica, UniProt C7BLE4). Nature of the assay: Hemagglutination inhibition assay with PHL (papain-treated human RBCs O). The class given is cell-based. Particulars: for MIC (minimal inhibitory concentration, hemagglutination by PHL): RBC O, two independent measurements; for PotencyL-Fuc: MIC L-fucose / MIC ligand; for β L-Fuc (affinity improvement factor): MICbasic unit/(valency × MICligand), basic unit L-Fuc; for β Azide1 (affinity improvement factor): basic unit azide 1. As to the method:
The set of potential ligands 1–10 with different levels of fucosylation was tested, and their inhibition potency on hemagglutination by PHL was assessed (Table 1, Fig. 2). […] To assess the contribution of valency to the affinity increase, an affinity improvement factor β was calculated as the relationship MICbasic unit/(valency × MICligand).
Human red blood cells (RBCs) O were processed according to previously published work[16]. In brief, RBCs O treated with sodium citrate were washed four times by PBS buffer (137 mM NaCl, 2.7 mM KCl, 8 mM Na2HPO4, 1.47 mM KH2PO4, pH 7.4), diluted to 50% by PBS with 0.005% (w/w) sodium azide and treated by 0.1% papain for the duration of 30 minutes.
Hemagglutination inhibition assay was performed for specificity and semi-quantitative affinity of the PHL interaction with the compounds. All carbohydrate inhibitors in 50 mM starting concentration were serially diluted in the PBS buffer and used for a determination of the lowest inhibiting concentration. As a blank, the PBS buffer supplemented with the appropriate amount of DMSO was used in order to exclude potential interference with the interaction. The individual samples were mixed with the lectin in concentration 2 mg/ml in a 5 μl:5 μl ratio. Thereafter, 10 μl of 10% RBCs O in PBS buffer was added, thoroughly mixed and incubated for 10 minutes at room temperature. Following incubation, the mixture was again mixed and the reaction was observed on microscope slides using Levenhuk 2L NG microscope with Levenhuk D2L digital camera (Levenhuk, USA). Imagines were obtained via software ToupView for Windows (Levenhuk). The positive (PHL without inhibitor) and negative control (reaction without PHL) were prepared and processed in the same way using the appropriate volume of PBS buffer instead of the not included components. The lowest concentration of inhibitor able to inhibit agglutination was determined and compared with the standard (L-fucose). Minimal inhibitory concentrations (MIC) of synthesised inhibitors were determined from two independent measurements.

Assay [2] addresses T1, PHL. Kind of assay: SPR competitive inhibition of PHL binding to α-L-fucoside sensor chip. Particulars: for IC50: 25 °C, three independent measurements; for β L-Fuc (affinity improvement factor): IC50,basic unit/(valency × IC50,ligand), basic unit L-Fuc; for PotencyL-Fuc: IC50 L-fucose / IC50 ligand; for β Azide1 (affinity improvement factor): basic unit azide 1. As to the method:
To analyse the competitive inhibition of PHL binding to a multivalent surface, the surface plasmon resonance (SPR) technique was employed. A sensor chip presenting α-L-fucopyranoside residues was treated with a constant concentration of PHL, while an increasing concentration of the ligands was used to determine IC50 (Table 2, Fig. 3). […] To assess the contribution of valency to the affinity increase, an affinity improvement factor β was calculated as the relationship IC50,basic unit/(valency × IC50,ligand)[30].
Surface plasmon resonance (SPR) experiments were performed on a BIAcore T200 instrument (GE Healthcare, UK) at 25 °C, using buffer A supplemented with 0.05% Tween 20 as a running buffer. α-L-fucoside was immobilized onto CM5 sensor chip (GE Healthcare, UK) covered with a carboxymethylated dextran matrix. The sensor chip surface was activated with N-ethyl-N-(3-dimethylaminopropyl)carbodiimide/N-hydroxysuccinimide solution and then coated with streptavidin using the manufacturer’s standard protocol using HBS buffer (10 mM HEPES, 150 mM NaCl, 0.05% Tween 20, pH 7. 5). Unreacted groups were blocked with 1 M ethanolamine-HCl, pH 8.5. Biotinylated carbohydrate (biotinilated monomeric probes, Lectinity, Russia) was injected onto particular measuring channel and pure biotin on blank channel at a flow rate of 5 μl/min.
SPR inhibition measurements were carried out on measuring channel with L-fucoside at a flow rate of 5 µl/min. PHL was diluted to a concentration of 20 μg/ml by the buffer A supplemented with 0.05% Tween 20, mixed 1:1 (v/v) with various concentrations of inhibitors (500–5 μM) in the same buffer and injected onto the sensor chip. The response of lectin bound to the sugar surface at equilibrium was plotted against the concentration of inhibitor in order to determine IC50 (concentration of inhibitor resulting in 50% inhibition of binding). As IC50 is not a constant and depends on the experimental set-up, a parameter called potency was used for characterization. The potency of a tested inhibitor is the ratio of IC50 of a chosen standard inhibitor (in this case L-fucose) and the inhibitor in question. Pure PHL lectin was used as a control (0% inhibition) and channel with pure biotin served as a blank. IC50 was determined from triplicates.

For assay [3], the system named is P. asymbiotica subsp. australis cells. Kind of assay: Cell aggregation (cross-linking) assay. The class given is cell-based, Photorhabdus asymbiotica subsp. australis. Particulars: three independent measurements. The source says: Because of the aggregation of PHL by calixarenes and dendrimers during SPR and ITC experiments, we decided to compare tetravalent compounds at a higher level. We performed a series of in vitro aggregation assays to reveal their aggregation properties towards P. asymbiotica subsp. australis (Table 4, Fig. 5). Prior to each assay, we confirmed the absence of aggregates in two negative controls – bacterial cells in PBS buffer and in the presence of azide 1 as a monomer. With all chosen compounds, we observed bacterial aggregates of a variable size that confirmed that they are capable of interacting with a cell surface. This effect may be caused by interaction of the multivalent inhibitors with PHL or other receptors. The concentration of the first appearance of aggregates varied according to the nature of the ligand used. […] An unexpected observation was that calixarene 7 had the lowest aggregation potential. In contrast to other techniques (hemagglutination, SPR and ITC), where calixarenes 6 and 7 provided similar results, during cross-linking experiments calixarene 7 was four times worse than calixarene 6. At the same time, both tetrameric calixarenes 6 and 7 are in a 1,3-alternate conformation with the two-faced presentation of the fucopyranosyl epitopes on opposite regions probably occupying a similar spatial orientation. The only difference is the tert-Bu group on the upper rim in calixarene 6, which might contribute to nonpolar interactions with whole P. asymbiotica cells.
P. asymbiotica subsp. australis was inoculated from stock cells stored at −80 °C into a standard LB media and were grown in 30 °C under an orbital shaking overnight. Bacterial growth was tracked by measuring the optical density of the broth at 600 nm (OD600) using a spectrophotometer (Biochrom Ltd., BioPhotometer WGA CO 8000 Biowave). Cells were harvested when reaching an OD600 = 0.5. The culture was centrifuged at 4,300 g and room temperature for 2 minutes (Minispin, Eppendorf, Germany) and cells were then washed three times with PBS buffer. Cells were diluted in PBS to OD600 of 2.0 and kept in a fridge until performing the aggregation assay.
P. asymbiotica subsp. australis cells and fucosylated compounds in a concentration ranging from 50 mM to 3.125 mM were gently mixed in a 9:1 (v/v) ratio. The reaction mixtures were left at room temperature for 10 minutes. 5 µl of reaction mixture was then transferred onto a microscope slide and observed under a fluorescence microscope (OLYMPUS IX81 Microscope IX81F-3 with IX2-UCB-2 Controller and X-Cite 120PC Q; Olympus and Excelitas Technologies, Japan, resp. USA). As a negative control, bacterial cells with/without azide 1 as a monomer were used. Three independent measurements were performed.

T1 sequence (C7BLE4 entry or part of it): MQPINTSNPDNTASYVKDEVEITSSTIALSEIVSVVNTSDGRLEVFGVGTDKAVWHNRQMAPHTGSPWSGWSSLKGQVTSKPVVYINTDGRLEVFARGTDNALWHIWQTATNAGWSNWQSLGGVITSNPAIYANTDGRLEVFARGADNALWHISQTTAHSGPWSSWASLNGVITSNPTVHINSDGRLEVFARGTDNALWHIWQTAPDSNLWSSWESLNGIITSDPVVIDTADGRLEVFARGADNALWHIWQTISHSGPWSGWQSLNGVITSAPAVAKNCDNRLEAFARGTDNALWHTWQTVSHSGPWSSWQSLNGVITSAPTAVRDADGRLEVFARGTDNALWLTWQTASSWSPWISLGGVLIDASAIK

Turning to `C[C@@H]1O[C@@H](CCN=[N+]=[N-])[C@@H](O)[C@H](O)[C@@H]1O` [Azide 1], at PHL [1], the “MIC (minimal inhibitory concentration, hemagglutination by PHL)” value was determined as 200 µM (≈ 43.4 µg/mL). Further, on PHL [1] (hemagglutination), the PotencyL-Fuc was determined as 15.6, the “β L-Fuc (affinity improvement factor)” value came out at 15.6 and the “β Azide1 (affinity improvement factor)” value stood at 1. The PotencyL-Fuc at PHL [1] (hemagglutination, listed as azide 1) is listed as 16. Also, on PHL [2], the IC50 was 11.5 ± 1.4 µM, the “β L-Fuc (affinity improvement factor)” value is reported as 32, the PotencyL-Fuc came to 32 and the “β Azide1 (affinity improvement factor)” value is listed as 1. In addition, in assay [3], the “The lowest concentration able to aggregate P. asymbiotica cells” value is recorded as “No visible aggregation in used concentrations”.

`C[C@@H]1O[C@@H](CCn2cc(COCC(COCc3cn(CC[C@@H]4O[C@@H](C)[C@@H](O)[C@@H](O)[C@@H]4O)nn3)(COCc3cn(CC[C@@H]4O[C@@H](C)[C@@H](O)[C@@H](O)[C@@H]4O)nn3)COCc3cn(CC[C@@H]4O[C@@H](C)[C@@H](O)[C@@H](O)[C@@H]4O)nn3)nn2)[C@@H](O)[C@H](O)[C@@H]1O` [Dendrimer 8]: on PHL [1], the “MIC (minimal inhibitory concentration, hemagglutination by PHL)” value stood at 50 µM (≈ 57.9 µg/mL). On PHL [1] (hemagglutination), the PotencyL-Fuc was found to be 62.5, the “β L-Fuc (affinity improvement factor)” value is 15.6 and the “β Azide1 (affinity improvement factor)” value came out at 1. Moreover, at PHL [1] (hemagglutination, relative to azide 1), the PotencyAzide1 was found to be 4. In addition, on PHL [2], the IC50 was determined as 0.188 ± 0.037 µM, the “β L-Fuc (affinity improvement factor)” value is 481, the PotencyL-Fuc was 1,922 and the “β Azide1 (affinity improvement factor)” value was “approximately 15”. Moreover, at PHL [2] (relative to azide 1), the PotencyAzide1 came out at 65. For the same compound, the “The lowest concentration able to aggregate P. asymbiotica cells” value in assay [3] is recorded as 0.625 mM.
